The record followed here is PubChem BioAssay (NCI).

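Values below derive from 48-hour exposures of cells grown in 96-well plates, with endpoints linearly interpolated between the two concentrations bracketing the appropriate inhibition level. TGI marks complete inhibition of growth.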

Some test systems named below: 786-0 renal; A498 renal; A549 NSCLC; COLO 205 colon; HCT-15 colon; HOP-92 NSCLC; HS 578T breast; IGROV1 ovarian; MALME-3M melanoma; MCF7 breast; MDA-MB-231 breast; OVCAR-5 ovarian; OVCAR-8 ovarian; RXF 393 renal; SF-268 CNS; SK-MEL-28 melanoma; SN12C renal; SNB-19 CNS; UACC-257 melanoma; SNB-75 CNS.
Holding throughout (assay): growth of human tumour cells (NCI), 48 h

Regarding `CCN(CC)c1ccc2cc(C(=O)Nc3nc(C45CC6CC(CC(C6)C4)C5)cs3)c(=O)oc2c1`, the TGI in the experiment on 786-0 renal, with A498 renal, in the experiment on A549 NSCLC, with COLO 205 colon, in the experiment with HCT-15 colon and with HOP-92 NSCLC was > 100 µM throughout. Besides, the TGI in the experiment with HS 578T breast, with IGROV1 ovarian, in the experiment with MALME-3M melanoma, in the experiment with MCF7 breast, with MDA-MB-231 breast and in the experiment with OVCAR-5 ovarian was > 100 µM each time. For the same molecule, the TGI in the experiment on OVCAR-8 ovarian, in the experiment on RXF 393 renal, with SF-268 CNS, in the experiment with SK-MEL-28 melanoma, in the experiment on SN12C renal and with SNB-19 CNS was > 100 µM throughout. For the same molecule, in the experiment with UACC-257 melanoma, the TGI was > 100 µM.

In the case of `COc1ccc(CCNC(=O)CCc2ccccc2CO)cc1OC`, the TGI in the experiment with 786-0 renal, with A498 renal, in the experiment on A549 NSCLC, with COLO 205 colon, in the experiment with HCT-15 colon and in the experiment with HOP-92 NSCLC was > 100 µM each time. Moreover, the TGI in the experiment with HS 578T breast, in the experiment with IGROV1 ovarian, in the experiment with MCF7 breast, in the experiment with MDA-MB-231 breast, in the experiment on OVCAR-5 ovarian and in the experiment with OVCAR-8 ovarian was > 100 µM throughout. The TGI in the experiment with RXF 393 renal, with SF-268 CNS, in the experiment with SK-MEL-28 melanoma, with SN12C renal, in the experiment on SNB-19 CNS and with SNB-75 CNS was > 100 µM in each case. In addition, the TGI in the experiment on UACC-257 melanoma is > 100 µM.

Turning to `C[C@@H]1OC(=O)C[C@H]2CC(=O)N(CCC3CN(S(=O)(=O)C(F)(F)F)c4ccccc43)C[C@@H]21` (stereo partly specified), the TGI in the experiment on 786-0 renal, with A498 renal, with A549 NSCLC, in the experiment with COLO 205 colon, in the experiment with HCT-15 colon and with HOP-92 NSCLC was > 100 µM each time. Besides, the TGI with HS 578T breast, in the experiment with IGROV1 ovarian, in the experiment on MALME-3M melanoma, in the experiment on MCF7 breast, in the experiment on MDA-MB-231 breast and in the experiment with OVCAR-5 ovarian was > 100 µM in each case. Moreover, the TGI with RXF 393 renal, with SK-MEL-28 melanoma, with SNB-19 CNS and in the experiment on UACC-257 melanoma was > 100 µM throughout.

On to `Cn1c2ccccc2c2nc3ccccc3c(Cl)c21`, for which the TGI in the experiment on 786-0 renal, in the experiment with A498 renal, in the experiment with A549 NSCLC, with COLO 205 colon, in the experiment on HCT-15 colon and in the experiment on HS 578T breast was > 100 µM throughout. For the same molecule, the TGI with IGROV1 ovarian, in the experiment with MALME-3M melanoma, in the experiment with MCF7 breast, in the experiment on MDA-MB-231 breast, in the experiment on OVCAR-5 ovarian and in the experiment with OVCAR-8 ovarian was > 100 µM throughout. For the same molecule, the TGI in the experiment on RXF 393 renal, in the experiment on SF-268 CNS, in the experiment with SK-MEL-28 melanoma, with SN12C renal, with SNB-19 CNS and in the experiment with SNB-75 CNS was > 100 µM throughout. For the same molecule, the TGI in the experiment on UACC-257 melanoma is > 100 µM.

With `CCO/C(O)=C(/C(=N)N1CCCC1)C(=O)Nc1ccc(F)cc1`, the TGI in the experiment on 786-0 renal, in the experiment with A498 renal, in the experiment with A549 NSCLC, in the experiment with COLO 205 colon, in the experiment on HCT-15 colon and in the experiment on HS 578T breast was > 100 µM each time. Besides, the TGI in the experiment with IGROV1 ovarian, with MALME-3M melanoma, in the experiment with MCF7 breast, in the experiment with MDA-MB-231 breast, in the experiment on OVCAR-5 ovarian and with OVCAR-8 ovarian was > 100 µM each time. For the same molecule, the TGI with RXF 393 renal, with SF-268 CNS, with SK-MEL-28 melanoma, in the experiment with SN12C renal, in the experiment with SNB-19 CNS and with SNB-75 CNS was > 100 µM throughout. In addition, in the experiment with UACC-257 melanoma, the TGI was > 100 µM.

For the molecule `O=C1/C(=C/c2ccccc2)CCc2ccccc21`, the TGI came out at 34.7 µM in the experiment on 786-0 renal; 34.5 µM with A498 renal; 57.4 µM in the experiment with A549 NSCLC; 38.2 µM in the experiment with COLO 205 colon; 86.9 µM in the experiment with HCT-15 colon; 72.4 µM with HS 578T breast. Moreover, the TGI in the experiment on IGROV1 ovarian is 54.3 µM; with MALME-3M melanoma it was 31.9 µM; in the experiment on MCF7 breast, 34.6 µM; with MDA-MB-231 breast, 87.7 µM; with OVCAR-5 ovarian it was 33.4 µM; in the experiment with OVCAR-8 ovarian it was 65.5 µM. Also, the TGI in the experiment on RXF 393 renal amounted to 29.7 µM; with SF-268 CNS, 37.4 µM; in the experiment with SK-MEL-28 melanoma, 38.3 µM; in the experiment on SN12C renal, 56.1 µM; with SNB-19 CNS, 22.7 µM; in the experiment with SNB-75 CNS, 31.9 µM. The TGI in the experiment with UACC-257 melanoma was 31.4 µM.
